Data: patent US20250345295A1, “LMK235 COMPOSITIONS AND METHODS” (UNM Rainforest Innovations, priority 2024, published 2025)
Several values for one entry are separate records, joined by “and”; a condition that tells them apart may be missing. Identical values can stand only once.

Tested on: differentially expressed genes in TG
Assay: RNAseq gene expression profiling of TG
Format: in vivo, mouse
Conditions: for Log2FC Ascl1 / Log2FC Klf2 / Log2FC Klf4 / Log2FC Klf5 / Log2FC Klf6 / Log2FC Klf7 / Log2FC Klf9 / Log2FC Klf13 / Log2FC Klf15 / Log2FC Klf16 / Log2FC L-Myc (Mycl) / Log2FC Lin28b / Log2FC Myt1l / Log2FC N-Myc (Mycn) / Log2FC Nanog / Log2FC NeuroD1 / Log2FC Sirt1 / Log2FC Sox2 / Log2FC Sox11 / Log2FC Stat3 / Log2FC c-Myc (Myc): TG
Experimental: Gene expression profiling was performed on TG from mice with/without nerve injury during the acute phase (three weeks post injury) in TIC mice and after transition to chronic pain (10 weeks post injury) in FRICT-ION mice by Quick Biology Inc. (Monrovia, CA).
Total RNA from ipsilateral TG was isolated using the Rneasy Mini Kit (Qiagen, Valencia, CA). Gene expression profiling and analysis with RNA was done by Quick Biology Inc. (Monrovia, CA). RNAseq library preparation was performed by Quick Biology Inc. (Monrovia, CA), sequencing was performed using an Illumina HiSeq 4000 at 40 million reads per sample. The reads were first mapped to the latest UCSC transcript set using Bowtie2 version 2.1.0 and the gene expression level was estimated using RSEM v1.2.15. Differentially expressed genes were identified using the edgeR program. Genes showing altered expression with p<0.05 were considered differentially expressed.

[1] = TG RNAseq, male FRICT-ION mice treated with LMK235 vs naive, week 10
[2] = LMK235 Treated FRICT-ION versus Naive
[3] = LMK235 Treated FRICT-ION versus Untreated FRICT-ION

Cc1cc(C)cc(C(=O)NOCCCCCC(=O)NO)c1 [LMK235, N-[[6-(Hydroxyamino)-6-oxohexyl]oxy]-3,5-dimethyl-benzamide]
Fold change 1500015O10Rik [1]: 4.68 fold
Fold change 4833423E24Rik [1]: 2.10 fold
Fold change Ache [1]: −1.12 fold
Fold change Ackr4 [1]: 3.74 fold
Fold change Aqp1 [1]: 7.41 fold and 7.4 fold
Fold change Calml4 [1]: 2.88 fold
Fold change Car12 [1]: 6.21 fold
Fold change Ccdc135 [1]: 2.84 fold
Fold change Cldn1 [1]: 2.48 fold
Fold change Cldn2 [1]: 8.46 fold
Fold change Col8a2 [1]: 3.06 fold
Fold change Crhr2 [1]: 2.35 fold
Fold change Enpp2 [1]: 2.22 fold
Fold change F5 [1]: 6.19 fold
Fold change Fap [1]: 3.16 fold
Fold change Folr1 [1]: 11.92 fold and 11.91 fold
Fold change Gmnc [1]: 2.40 fold
Fold change Gvin1 [1]: 5.55 fold
Fold change Hdac5 [1]: −1.13 fold
Fold change Hdac10 [1]: −1.20 fold
Fold change Igfbpl1 [1]: 2.39 fold
Fold change Il1a [1]: 2.21 fold
Fold change Inmt [1]: 6.34 fold
Fold change Kcne2 [1]: 17.29 fold
Fold change Kcnj13 [1]: 7.84 fold
Fold change Kl [1]: 5.00 fold
Fold change Krt18 [1]: 6.56 fold
Fold change Lbp [1]: 3.97 fold
Fold change Lum [1]: 2.08 fold
Fold change Mfrp [1]: 4.30 fold
Fold change Otx2 [1]: 5.17 fold
Fold change Postn [1]: 2.24 fold
Fold change Prr32 [1]: 5.41 fold
Fold change Rbm14-rbm4 [1]: 66.16 fold
Fold change Slc4a5 [1]: 4.83 fold
Fold change Sostdc1 [1]: 15.70 fold
Fold change Tgtp1 [1]: 2.49 fold
Fold change Tmem72 [1]: 6.47 fold
Fold change Tmprss11a [1]: 37.90 fold
Fold change Tnfsf13 [1]: 2.14 fold
Fold change Ttr [1]: 23.21 fold
Fold change Wfdc2 [1]: 4.61 fold
Log2FC Ascl1 [2]: 1.16 Log2FC
Log2FC Klf2 [2]: −1.57 Log2FC
Log2FC Klf4 [2]: −1.23 Log2FC
Log2FC Klf5 [2]: 1.25 Log2FC
Log2FC Klf6 [2]: 1.03 Log2FC
Log2FC Klf7 [2]: 1.12 Log2FC
Log2FC Klf9 [2]: −1.03 Log2FC
Log2FC Klf13 [2]: −1.16 Log2FC
Log2FC Klf15 [2]: −1.26 Log2FC
Log2FC Klf16 [2]: −1.08 Log2FC
Log2FC L-Myc (Mycl) [2]: 1.08 Log2FC
Log2FC Lin28b [2]: −1.13 Log2FC
Log2FC Myt1l [2]: 1.03 Log2FC
Log2FC N-Myc (Mycn) [2]: 1.63 Log2FC
Log2FC Nanog [2]: 1.01 Log2FC
Log2FC NeuroD1 [2]: 1.26 Log2FC
Log2FC Sirt1 [2]: 1.17 Log2FC
Log2FC Sox2 [2]: 1.25 Log2FC
Log2FC Sox11 [2]: 1.05 Log2FC
Log2FC Stat3 [2]: −1.00 Log2FC
Log2FC c-Myc (Myc) [2]: 1.14 Log2FC
Log2FC Ascl1 [3]: 1.05 Log2FC
Log2FC Klf2 [3]: 1.20 Log2FC
Log2FC Klf4 [3]: 1.13 Log2FC
Log2FC Klf5 [3]: −1.30 Log2FC
Log2FC Klf6 [3]: 1.05 Log2FC
Log2FC Klf7 [3]: 1.15 Log2FC
Log2FC Klf9 [3]: −1.05 Log2FC
Log2FC Klf13 [3]: −1.17 Log2FC
Log2FC Klf15 [3]: −1.16 Log2FC
Log2FC Klf16 [3]: −1.24 Log2FC
Log2FC L-Myc (Mycl) [3]: −1.54 Log2FC
Log2FC Lin28b [3]: 1.07 Log2FC
Log2FC Myt1l [3]: −1.17 Log2FC
Log2FC N-Myc (Mycn) [3]: 1.00 Log2FC
Log2FC Nanog [3]: −1.03 Log2FC
Log2FC NeuroD1 [3]: 1.21 Log2FC
Log2FC Sirt1 [3]: 1.02 Log2FC
Log2FC Sox2 [3]: 1.07 Log2FC
Log2FC Sox11 [3]: −1.21 Log2FC
Log2FC Stat3 [3]: −1.04 Log2FC
Log2FC c-Myc (Myc) [3]: −1.03 Log2FC
